Source: article PMC10319141, “Imidazoquinolines with improved pharmacokinetic properties induce a high IFNα to TNFα ratio in vitro and in vivo” (Frontiers in Immunology, 2023)

Legend:
[1] = system: TNFα and IFNα in peripheral plasma; test: Cytokine induction after three consecutive daily s.c. treatments (Figure 6A, C); assay type: in vivo, mice; settings: in words; for type I Interferon concentrations in plasma after the second treatment: repeated daily s.c. treatment; for secretion of TNFα after repeated treatments in comparison with IMQ and RSQ: three daily s.c. treatments
Method: Cytokine concentrations in samples were quantified either by ELISA (hTNFα, R&D Systems; hIFNα, Mabtech) or cytometric bead arrays (CBA, LegendPlex mouse anti-virus response panel, BioLegend) according to the manufacturer’s instructions. CBAs were acquired on a ZE5 Cell Analyzer (Bio-Rad) and analyzed using the LegendPlex Software Suite (Qognit/BioLegend). Absorbance of ELISA-samples was quantified using a Versamax microplate reader (Molecular Devices).
Formulation. Test compounds were prepared for application in either 1% Tween 80, 9% PEG400 in ultrapure water (Biowest) (i.v., i.p., p.o. application) or 5 mM citric acid in 0.9% saline (Braun) (subcutaneous application). If compounds were administered subcutaneously, injections were carried out into the neck crease.
Collection of Samples. Mice were bled from the tail vein at various timepoints. Heparin (Sigma) or K2-EDTA (Sigma) was added to blood samples to a final […] concentration of 10-15 Unit or 5 mM. Plasma was generated by centrifugation at 6800xg for 8 min at 4°C and stored at -80°C until analyzed by ELISA or CBA. Animals were sacrificed after the indicated time points by CO2 inhalation. Heart blood and organs for compound quantification by HPLC-MS/MS were collected post mortem and stored at –20°C until extracted as described above.
Dotted lines indicate the time of repeated compound applications. (A) Cytokine levels in pooled tail plasma of mice from individual treatment groups (n=3 per pool and time point), error bars represent range of two replicate measurements. (B) Peripheral blood was collected from the tail vein before, 15, 30 60, 120, 240, 360 and 480 min after s.c. treatment. Compound concentration in peripheral plasma was analyzed by HPLC-MS/MS, data presented as mean ± SD.

[2] = Stability in whole blood, U937 and RPMI; assay type: in vitro ADME, human; settings: 1 µM, 37°C, over 24 h; in words
Method: Human blood products used in the in vitro assays (for cell stimulation and stability) were obtained from the center for transfusion medicine in Tübingen, Germany (Zentrum für Klinische Transfusionmedizin Tübingen GmbH, (ethical approval number ZKT-FoPro202106-2305-01). Test compounds (1 µM) in either culture medium (RPMI-1640 medium containing 10% fetal bovine serum, 60 mg/l Penicillin G sodium salt and 100 mg/l Streptomycin sulfate (all Biowest)), human blood (diluted 1:1 with culture medium) or a suspension of 5x10^6 cells/ml U937 in culture medium were incubated at 37°C, 450 rpm on a shaking incubator. At the indicated time points 50 µL of blood, cell suspension or medium were collected and prepared for HPLC-MS/MS-Analysis as detailed below.
All samples were extracted with 3 or 6 volumes acetonitrile containing terbuthylazine as an internal standard (ACN) relative to either sample weight or volume. Liquid samples (plasma, culture medium, cell suspensions in stability experiments) were diluted in either 3 (culture medium, cell suspensions) or 6 (plasma) volumes ACN, pellet and blood samples were extracted by addition of ACN followed by sonication for 5 min. […]
Quantification of analytes was performed on an Agilent 1260/1290 Infinity system fitted with an Agilent C18 Poroshell 120 column (4.6 x 50 mm, 2.7 µm) coupled to a triple quadrupole Sciex API 4000 MS/MS detector. […]

Row | stability in whole blood and cell based (U937) assays [2] | SMILES | type I Interferon concentrations in plasma after the second treatment [1] | secretion of TNFα after repeated treatments in comparison with IMQ and RSQ [1]
1 |  | CCCCc1nc2c(N)nc3ccccc3c2n1CCC1CCNCC1 [A1] | at the limit of detection | remained low
2 | stable | CCCCc1nc2c(N)nc3ccccc3c2n1CC1CCN(C(=O)CN(C)CC(=O)N(C)[C@H]2C[C@@H](C)O[C@@H](O[C@@H]3[C@@H](C)[C@H](O[C@H]4C[C@@](C)(OC)[C@@H](O)[C@H](C)O4)[C@@H](C)C(=O)O[C@H](CC)[C@@](C)(O)[C@H](O)[C@@H](C)N(C)C[C@H](C)C[C@@]3(C)O)[C@@H]2O)CC1 [A2-mac] |  | 
3 | stable | CCCCc1nc2c(N)nc3ccccc3c2n1CCC1CCN(C(=O)CN(C)CC(=O)N(C)C2CC(C)OC(OC3C(C)C(OC4CC(C)(OC)C(O)C(C)O4)C(C)C(=O)OC(CC)C(C)(O)C(O)C(C)N(C)CC(C)CC3(C)O)C2O)CC1 (stereo not drawn) [A1-mac] | at the limit of detection | remained low
